In this assay the test system is mouse peritoneal macrophages. The experiment in a line: PAF and lyso-PAF production in LPS-primed, A23187-stimulated peritoneal macrophages. In kind it is cell-based. Conditions: 5 μM A23187 5 min. The procedure: RAW-mLPCAT2 cells and peritoneal macrophages were seeded in 24-well plates (4 × 10^6 cells/well) for 24 or 2 h, respectively, before treatment. RAW-mLPCAT2 cells were stimulated with 5 μM A23187 for 5 min after a 1 h treatment with the compounds. Peritoneal macrophages were preincubated with 100 ng/ml LPS for 18 h, treated with the compounds for 1 h, and stimulated with 5 μM A23187 for 5 min. To analyze cellular PAF levels, lipids were extracted with 500 μl methanol containing d4-PAF and d4-lyso-PAF as internal standards. Each sample was submitted to solid phase extraction using an Oasis HLB 96-well cartridge cluster (Waters), and PAF and lyso-PAF were measured by LC-MS/MS as previously described ([13]).
Chromatography was performed using an Acquity™ Ultra-performance LC system (Waters) coupled to a TSQ Vantage triple stage quadrupole mass spectrometer (Thermo Scientific) with a HESI-II electrospray ionization source ([13]). Phospholipids were separated on BEH C8 columns (1.7 μm, 2.1 × 30 mm or 1 × 100 mm; Waters) for the analysis of assay products or the composition of cellular PAF and lyso-PAF, respectively. The mobile phase contained 20 mM aqueous ammonium bicarbonate and acetonitrile. The extracts from peritoneal macrophages were separated on a Kinetex C8 column (1.7 μm, 2.1 × 100 mm; Phenomenex, Torrance, CA) by a gradient elution with 0.05% formic acid-water and acetonitrile, using the Nexera X2 system and LCMS-8080 mass spectrometer (Shimadzu, Kyoto, Japan) ([13]). Lyso-PAF, d4-PAF, and d31-DPPC were identified by the choline fragment (m/z 184) as a product ion of selected reaction monitoring in the positive ion mode. Nonlabeled PAF and d4-16:0/20:4 alkyl-PC were determined by fatty acid anions of sn-2 composition (m/z 59 and 303, respectively) in the negative ion mode. […] Signal intensities were determined relative to the internal standard or as the percentage of the positive control.
The effect of TSI-01 on PAF and lyso-PAF biosynthesis was evaluated using thioglycollate-elicited mouse peritoneal macrophages. […]

Regarding `CC(C)OC(=O)c1ccc(N2C(=O)C(Cl)=C(Cl)C2=O)cc1` [TSI-01, propan-2-yl 4-(3,4-dichloro-2,5-dioxopyrrol-1-yl)benzoate], the PAF levels entry (60 μM TSI-01, LPS 18 h, compound 1 h) is “below the detection limit”. Moreover, for the setting “LPS 100 ng/ml 18 h, TSI-01 1 h”, the “PAF levels in A23187-stimulated cells” value is reported as “decreased” and the lyso-PAF levels result is “not changed”.

The values above are taken from publication PMC4076079, “Selective inhibitors of a PAF biosynthetic enzyme lysophosphatidylcholine acyltransferase 2” (Journal of Lipid Research, 2014).
